Patent US7514417B2 (CV Therapeutics, Inc., priority 2005, dated 2009)

Target: T1, A1 adenosine receptor (Mesocricetus auratus, UniProt A0A1U8BVR4)
T1 construct: A1 adenosine receptor sites on the membranes of DDT cells; endogenous in cells; host or cells: DDT cells (DDT1, hamster vas deferens smooth muscle cell line), membrane preparation
T1 sequence (A0A1U8BVR4 1-326): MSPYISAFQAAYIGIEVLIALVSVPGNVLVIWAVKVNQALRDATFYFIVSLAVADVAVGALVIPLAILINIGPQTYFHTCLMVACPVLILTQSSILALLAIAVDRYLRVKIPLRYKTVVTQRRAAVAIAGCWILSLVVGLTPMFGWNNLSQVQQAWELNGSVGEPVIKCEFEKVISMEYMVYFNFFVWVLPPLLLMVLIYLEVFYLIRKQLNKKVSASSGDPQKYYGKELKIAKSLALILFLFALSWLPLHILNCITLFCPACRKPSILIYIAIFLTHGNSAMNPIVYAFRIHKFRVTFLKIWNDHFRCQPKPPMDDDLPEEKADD
Assay: Competitive radioligand binding assay, A1 binding affinity, DDT1 cell membranes
Design: species or system hamster
Details: membranes of DDT cells, tritiated radioligand (3H-CPA) 1.5 nM, 23° C. 90 minutes
Description: DDT cells (hamster vas deferens smooth muscle cell line) were grown as monolayers in petri dishes using Dulbecco's Modified Eagle's Medium (DMEM) containing 2.5 μg mL^−1 amphotericin B, 100 U mL^−1 penicillin G, 0.1 mg mL^−1 streptomycin sulfate and 5% fetal bovine serum in a humidified atmosphere of 95% air and 5% CO2. Cells were subcultured twice weekly by dispersion in Hank's Balanced Salt Solution (HBSS) without the divalent cations and containing 1 mM EDTA. The cells were then seeded in growth medium at a density of 1.2×10^5 cells per plate and experiments were performed 4 days later at approximately one day preconfluence.
Attached cells were washed twice with HBSS (2×10 mL), scraped free of the plate with the aid of a rubber policeman in 5 mL of 50 mM Tris-HCl buffer pH 7.4 at 4° C. and the suspension was homogenized for 10 s. The suspension was then centrifuged at 27,000×g for 10 min. The pellet was resuspended in homogenization buffer by vortexing and centrifuged again as described above. The final pellet was resuspended in 1 vol of 50 mM Tris-HCl buffer pH 7.4 containing 5 mM MgCl2 for A1 adenosine receptor assays. For the [^35S]GTPγS binding assay the final pellet was resuspended in 50 mM Tris-HCl pH 7.4 containing 5 mM MgCl2, 100 mM NaCl and 1 mM dithiothreitol. This membrane suspension was then placed in liquid nitrogen for 10 min and stored at −80° C. Aliquots of the membrane suspension were later thawed and used for assays. The protein content was determined with a Bradford™ Assay Kit using bovine serum albumin as standard.
Briefly, 50-70 ug of membrane protein were incubated in a mixture containing 2U/ml adenosine deaminase and 10 μM GTP-γS in 50 mM Tris-HCl buffer, pH 7.4, with 1 mM EDTA in glass tubes. Stock solutions of the compounds of the invention were serially diluted (10^−10M to 10^−4M) in Tris buffer and added to the incubation mixture. […] After incubation at 23° C. 90 minutes, the reaction was stopped by filtration on a Brandel MR24 cell harvester and washing with ice-cold Tris-EDTA buffer (three times, approximate volume 10 ml/wash) over Whatman GF/B filters (presoaked for 1 h in 0.3% polyethylenimine to reduce non-specific binding). Filters were transferred to scintillation vials and 5 ml of Scintisafe (VWR, Brisbane, Calif.) was added. The amount of radioactivity retained on the filters was determined by liquid scintillation spectrometry.

Molecule | Ki [nM]
CCCNC(=O)c1cnn(-c2nc(N[C@@H]3CCOC3)c3ncn([C@@H]4O[C@H](CO)[C@@H](O)[C@H]4O)c3n2)c1 [XIII, (1-{6-[((3R)oxolan-3-yl)amino]-9-[(4S,2R,3R,5R)-3,4-dihydroxy-5-(hydroxymethyl)oxolan-2-yl]purin-2-yl}pyrazol-4-yl)-N-propylcarboxamide] | 10
O=C(O)c1ccc(-c2cnn(-c3nc(N[C@@H]4CCOC4)c4ncn(C5OC(CO)C(O)C5O)c4n3)c2)nc1 (stereo partly drawn) [XVII, 6-(1-{6-[((3R)oxolan-3-yl)amino]-9-[3,4-dihydroxy-5-(hydroxymethyl)oxolan-2-yl]purin-2-yl}pyrazol-4-yl)pyridine-3-carboxylic acid] | 64
CNC(=O)c1cnn(-c2nc(NC3CCCC3)c3ncn([C@@H]4O[C@H](CO)[C@@H](O)[C@H]4O)c3n2)c1 [XXXV, (1-{9-[(4S,3R,5R)-3,4-dihydroxy-5-(hydroxymethyl)oxolan-2-yl]-6-(cyclopentylamino)purin-2-yl}pyrazol-4-yl)-N-methylcarboxamide] | 1
O=C(NCc1cc(F)cc(C(F)(F)F)c1)c1cnn(-c2nc(N[C@@H]3CCOC3)c3ncn([C@@H]4O[C@H](CO)C(O)C4O)c3n2)c1 (stereo in doubt) [XXI, (1-{6-[((3R)oxolan-3-yl)amino]-9-[(3S,2R,4R,5R)-3,4-dihydroxy-5-(hydroxymethyl)oxolan-2-yl]purin-2-yl}pyrazol-4-yl)-N-{[5-fluoro-3-(trifluoromethyl)phenyl]methyl}carboxamide] | 56
O=C(NCc1ccccc1)c1cnn(-c2nc(N[C@@H]3CCOC3)c3ncn([C@@H]4O[C@H](CO)[C@@H](O)[C@H]4O)c3n2)c1 [XX, (1-{6-[((3R)oxolan-3-yl)amino]-9-[(4S,2R,3R,5R)-3,4-dihydroxy-5-(hydroxymethyl)oxolan-2-yl]purin-2-yl}pyrazol-4-yl)-N-benzylcarboxamide] | 1
Cc1cc(C)n(-c2nc(NC3CCCC3)c3ncn(C4O[C@H](CO)[C@@H](O)[C@H]4O)c3n2)n1 (some centres unmarked) [listing 1 of 2 here] | 134
CNC(=O)c1cnn(-c2nc(NCc3ccccc3)c3ncn([C@@H]4O[C@H](CO)[C@@H](O)[C@H]4O)c3n2)c1 [XVI, (1-{9-[(4S,2R,3R,5R)-3,4-dihydroxy-5-(hydroxymethyl)oxolan-2-yl]-6-[benzylamino]purin-2-yl}pyrazol-4-yl)-N-methylcarboxamide] | 1790
O=C(NCc1ccc(F)cc1)c1cnn(-c2nc(N[C@@H]3CCOC3)c3ncn([C@@H]4O[C@H](CO)[C@@H](O)[C@H]4O)c3n2)c1 [XIX, (1-{6-[((3R)oxolan-3-yl)amino]-9-[(4S,2R,3R,5R)-3,4-dihydroxy-5-(hydroxymethyl)oxolan-2-yl]purin-2-yl}pyrazol-4-yl)-N-[(4-fluorophenyl)methyl] carboxamide] | 43
Cc1cc(C)n(-c2nc(NC3CCCC3)c3ncn(C4O[C@H](CO)[C@@H](O)[C@H]4O)c3n2)n1 (some centres unmarked) [listing 2 of 2 here] | 94
O=C(O)c1ccc(CNC(=O)c2cnn(-c3nc(N[C@@H]4CCOC4)c4ncn([C@@H]5O[C@H](CO)[C@@H](O)[C@H]5O)c4n3)c2)cc1 [XXX, 4-{[(1-{6-[((3R)oxolan-3-yl)amino]-9-[(4S,2R,3R,5R)-3,4-dihydroxy-5-(hydroxymethyl)oxolan-2-yl]purin-2-yl}pyrazol-4-yl)carbonylamino]methyl}benzoic acid] | 8
O=C(NCc1ccc(Cl)cc1)c1cnn(-c2nc(N[C@@H]3CCOC3)c3ncn([C@@H]4O[C@H](CO)[C@@H](O)[C@H]4O)c3n2)c1 [XVIII, (1-{6-[((3R)oxolan-3-yl)amino]-9-[(4S,2R,3R,5R)-3,4-dihydroxy-5-(hydroxymethyl)oxolan-2-yl]purin-2-yl}pyrazol-4-yl)-N-[(4-chlorophenyl)methyl]carboxamide] | 27
(4S,3R,5R)-2-[2-(4-butyl-3,5-dimethylpyrazolyl)-6-(cyclopentylamino)purin-9-yl]-5-(hydroxymethyl)oxolane-3,4-diol [XXVIII] | 188
CCNC(=O)[C@H]1O[C@@H](n2cnc3c(NC4CCOC4)nc(-n4cc(-c5ccc(C)cc5)cn4)nc32)[C@H](O)[C@@H]1O (some centres unmarked) [I] | 2000
CCNC(=O)[C@H]1O[C@@H](n2cnc3c(N[C@@H]4CCOC4)nc(-n4cc(-c5ccncc5)cn4)nc32)[C@H](O)[C@@H]1O | 1060
COC(=O)c1ccc(CNC(=O)c2cnn(-c3nc(N[C@@H]4CCOC4)c4ncn([C@@H]5O[C@H](CO)[C@@H](O)[C@H]5O)c4n3)c2)cc1 [XXIX, methyl 4-{[(1-{6-[((3R)oxolan-3-yl)amino]-9-[(4S,2R,3R,5R)-3,4-dihydroxy-5-(hydroxymethyl)oxolan-2-yl]purin-2-yl}pyrazol-4-yl)carbonylamino]methyl}benzoate] | 6
O=C(O)c1cnn(-c2nc(NC3CC4CCC3C4)c3ncn(C4O[C@H](CO)[C@@H](O)[C@H]4O)c3n2)c1 (stereo partly drawn) [XXXIV, 1-{9-[(4S,3R,5R)-3,4-dihydroxy-5-(hydroxymethyl)oxolan-2-yl]-6-(bicyclo[2.2.1]hept-2-ylamino)purin-2-yl}pyrazole-4-carboxylic acid] | 1
CCOC(=O)c1cnn(-c2nc(NC3CCCC3)c3ncn([C@@H]4O[C@H](CO)[C@@H](O)[C@H]4O)c3n2)c1 (single isomer, unassigned) [XXV] | 0.9
CCOC(=O)c1cnn(-c2nc(NC3CC4CCC3C4)c3ncn(C4O[C@H](CO)[C@@H](O)[C@H]4O)c3n2)c1 (stereo partly drawn) [XXXIII, ethyl 1-{9-[(4S,3R,5R)-3,4-dihydroxy-5-(hydroxymethyl)oxolan-2-yl]-6-(bicyclo[2.2.1]hept-2-ylamino)purin-2-yl}pyrazole-4-carboxylate] | 2
CCOC(=O)c1cnn(-c2nc(NCc3ccccc3)c3ncn([C@@H]4O[C@H](CO)[C@@H](O)[C@H]4O)c3n2)c1 [XII, ethyl 1-{9-[(4S,2R,3R,5R)-3,4-dihydroxy-5-(hydroxymethyl)oxolan-2-yl]-6-[benzylamino]purin-2-yl}pyrazole-4-carboxylate] | 1720
Cc1ccc(-c2cnn(-c3nc(N[C@@H]4CCOC4)c4ncn([C@@H]5O[C@H](C(=O)O)[C@@H](O)[C@H]5O)c4n3)c2)cc1 | 121
CCCNC(=O)c1cnn(-c2nc(NCc3ccccc3)c3ncn([C@@H]4O[C@H](CO)[C@@H](O)[C@H]4O)c3n2)c1 [XIV, (1-{9-[(4S,2R,3R,5R)-3,4-dihydroxy-5-(hydroxymethyl)oxolan-2-yl]-6-[benzylamino]purin-2-yl}pyrazol-4-yl)-N-propylcarboxamide] | 1090
CCNC(=O)c1cnn(-c2nc(N[C@@H]3CCOC3)c3ncn([C@@H]4O[C@H](CO)[C@@H](O)[C@H]4O)c3n2)c1 [XI, (1-{6-[((3R)oxolan-3-yl)amino]-9-[(4S,2R,3R,5R)-3,4-dihydroxy-5-(hydroxymethyl)oxolan-2-yl]purin-2-yl}pyrazol-4-yl)-N-ethylcarboxamide] | 10
O=C(O)c1cnn(-c2nc(NC3CCCC3)c3ncn([C@@H]4O[C@H](CO)[C@@H](O)[C@H]4O)c3n2)c1 [XXXI, 1-{9-[(4S,3R,5R)-3,4-dihydroxy-5-(hydroxymethyl)oxolan-2-yl]-6-(cyclopentylamino)purin-2-yl}pyrazole-4-carboxylic acid] | 8
NC(=O)c1cnn(-c2nc(NC3CCCC3)c3ncn([C@@H]4O[C@H](CO)[C@@H](O)[C@H]4O)c3n2)c1 [XXXII, 1-(9-[(4S,3R,5R)-3,4-dihydroxy-5-(hydroxymethyl)oxolan-2-yl]-6-(cyclopentylamino)purin-2-yl}pyrazole-4-carboxamide] | 0.59
CCOC(=O)c1cnn(-c2nc(NC3CCCC3)c3ncn([C@@H]4O[C@H](CO)[C@@H](O)[C@H]4O)c3n2)c1 [III, ethyl 1-{9-[(4S,3R,5R)-3,4-dihydroxy-5-(hydroxymethyl)oxolan-2-yl]-6-(cyclopentylamino)purin-2-yl}pyrazole-4-carboxylate] | 36
CCNC(=O)c1cnn(-c2nc(NCc3ccccc3)c3ncn([C@@H]4O[C@H](CO)[C@@H](O)[C@H]4O)c3n2)c1 [XV, (1-{9-[(4S,2R,3R,5R)-3,4-dihydroxy-5-(hydroxymethyl)oxolan-2-yl]-6-[benzylamino]purin-2-yl}pyrazol-4-yl)-N-ethylcarboxamide] | 1530
